Measurements reported in patent US9034862B2, “Compositions and methods for the treatment of cancer” (priority 2011, dated 2015).
Like-named read-outs stand apart in the source and are kept apart here.

Assays:
[1] = test system: 60 different human cancer cell lines; experiment: NCI-60 DTP Human Tumor Cell Line Screen; conditions: single dose of 10 μM
[2] = test system: Human colon carcinoma HT29; experiment: MTT assay, HT29; format: cell-based
Protocol: (§1) Human colon carcinoma HT29, human breast carcinoma MCF7, human bone sarcoma U2OS, human prostate carcinoma PC3, and human cervix carcinoma HeLa cells were obtained from the ATCC. A2780/CP70 cisplatin-resistant human ovarian cancer cells were kindly provided by Dr. Stephen B. Howell (Moores UCSD Cancer Center) and the human lung carcinoma cell lines A549 and normal lung fibroblast MRC5 by David E. Root (Whitehead Institute for Biomedical Research). Cells were incubated at 37° C. in 5% CO2 and grown in RPMI (HT29, A2780/CP70, and PC3) or DMEM (A549, MRC5, HeLa, MCF7, and U2OS) medium supplemented with 10% fetal bovine serum and 1% penicillin/streptomycin. Cells were passed every 3 to 4 days and restarted from a frozen stock upon reaching pass number 20.
(§2) Solutions of the platinum compounds were freshly prepared in sterile PBS before use and their concentrations quantitated by atomic absorption spectroscopy. […] The cells were then treated with 20 μL of 3-(4,5-dimethylthiazol-2-yl)-2,5-diphenyltetrazolium bromide (MTT) (5 mg/mL in PBS) and incubated for 4 h. The medium was removed, 100 μL of DMSO was added to the cells, and the absorbance of the purple formazan was recorded at 560 nm using a BioTek Synergy HT multi-detection microplate plate reader. Each condition was performed in triplicate and three independent experiments were carried out for each cell line.

[3] = test system: Gaussia luciferase expression in human cancer cells; conditions: for Transcription (normalized against unplatinated control): NoPt = 100, cell line not stated
Protocol: Vector Construction and Preparation. […] Preparation of Platinated Insertion Strand. […] The suspension was centrifuged. To a solution of 0.2 mM 16-mer oligonucleotide 5′-[…]*[…] The reaction mixture was incubated in the dark at 37° C. overnight. The reaction was stopped when the solution was frozen. […] After purification, the platinated DNA solution was dialyzed against H2O and lyophilized. […] The insertion strand was further analyzed for nucleotide composition by nuclease S1 digestion to confirm the platination site following a protocol published previously (Table 13) (e.g., see J Am Chem Soc 2007, 129, 6370-6371). The platinated and unplatinated DNA strands (40 μM) were phosphorylated by T4 PNK (0.67 U/μL) at 37° C. for 3 h, followed by a phenol/chloroform/isoamyl alcohol extraction to remove the enzyme. The phosphorylated DNA strands were ethanol precipitated and stored in −80° C. at a concentration of 100 pmol/μL.
Briefly, a 600 μg quantity of pGLuc8temG plasmid was digested with 30 U Nt.BbvCI at 37° C. for 1 h. The reaction mixture was heated at 80° C. for 20 min to deactivate the enzyme, followed by a phenol/chloroform/isoamyl alcohol extraction to remove the enzyme. The mixture was dialyzed against H2O overnight at 4° C. The plasmid was further digested with 30 U Nt.BspQI at 50° C. for 1 h, and the enzyme was heat-deactivated and removed by a phenol/chloroform/isoamyl alcohol extraction. The nicked plasmid was mixed with 1,000 equiv of complementary DNA strand 5′-[…] (SEQ ID NO: 2) in a buffer of 10 mM Tris-HCl, 2 mM MgCl2, 0.4 M NaCl, pH 7.4, heated at 80° C. for 5 min, and subsequently cooled at 4° C. for 5 min for 10 cycles. […] A 120 μg quantity of the gapped plasmid was annealed with 100 equiv of the insertion strand in a buffer of 10 mM Tris-HCl, 2 mM MgCl2, 0.4 M NaCl, pH 7.4 from 90° C. to 4° C. at −1° C./min in a thermocycler. The platinated plasmid was dialyzed against H2O at 4° C. overnight and further purified by treatment with 30 U BsmBI at 55° C. for 1 h. The closed-circular form of plasmid was purified and concentrated by isopycnic centrifugation, followed by n-butanol extraction and ethanol precipitation. The plasmids were quantitated by a Quant-iT™ PicoGreen® dsDNA Kit from Invitrogen (Carlsbad, Calif.), and stored in −80° C. in TE buffer (10 mM Tris-HCl, 2 mM EDTA, pH 7.4).
Transfection of platinated plasmids into mammalian cells was carried out as reported previously (e.g., see ChemBioChem 2011, 12, 1115-1123). A549 and HeLa cells were plated at 2,000 cells per well in 96-well plates. NTera-2 and HT29 cells were plated at 4,000 cells per well in 96-well plates. MCF7 and U2OS cells were plated at 5,000 cells per well in 96-well plates. The cells were allowed to attach and grow for 48 h, and then washed with antibiotic-free culture media right before transfection. Transient transfection of the cells was carried out using Lipofectamine 2000. Briefly, 10 ng of site specifically platinated probes was included in each well. The experiments were performed in quadruplicate. The probes were diluted in OptiMEM, and Lipofectamine was diluted in OptiMEM. The two solutions were combined and incubated for 20 min. The transfection mixture was delivered into each well, and the cells were incubated for 2 h. The cells were washed with antibiotic-free culture media to remove the transfection mixture. A 100 μL volume of fresh, antibiotic-free media was added into each well to start the transcription assay. […]

[4] = equimolar N-AcMet, 37° C.
Protocol: NMR spectra were collected on a Varian 500 spectrometer equipped with a triple-resonance broadband inverse probe and a variable temperature unit. The 1-D ^1H NMR kinetic studies were performed in duplicate as a standard time-arrayed experiment using a variable delayed list. Incremented 1-D spectra were processed in exactly the same way and signals of aromatic amine ligands from platinum compounds were integrated. The relative concentrations of the platinum compound at each time point were calculated from peak integrals. […] Reactions of platinum compounds with N-AcMet were performed in NMR tubes containing 2 mM of the Pt complex and 2 mM (1 equiv) of N-AcMet in 10 mM PBS buffer, D2O, pH*7.4 at 37° C. […] Deuterated 3-(trimethylsilyl)propionic acid sodium salt (TMS-PFASS) was used as an internal standard. The pH* values are the measured pH values without correction for the effect of deuterium on the electrode.

[5] = test system: normal lung fibroblast MRC5; experiment: MTT assay, MRC5; format: cell-based, human
Protocol: as §1, §2

cis-[Pt(NH3)2(phenanthridine)Cl]NO3 [phenanthriplatin]
growth inhibition of the 60 cell lines [1]: significant growth inhibition | IC50 ([2]; Table 3, HT29 Colorectal, 72-h incubation): 2.02 ± 0.04 µM | IC50 ([2]; Table 5, HT29, 72-h incubation): 2.02 ± 0.04 µM | IC50 ([2]; Table 14, HT29, MTT assay): 2.02 ± 0.04 µM | Transcription (normalized against unplatinated control) ([3]; 16 hours): 26 | Transcription (normalized against unplatinated control) ([3]; 24 hours): 32 | Transcription (normalized against unplatinated control) ([3]; 32 hours): 36 | Transcription (normalized against unplatinated control) ([3]; 44 hours): 41 | transcription inhibition in live mammalian cancer cells ([3]; site-specific cis-[Pt(NH3)2(phen)]2+-dG lesion): strong transcription inhibitor | second-order rate constant, reaction with N-AcMet [4]: 0.00944 M⁻¹ s⁻¹ | IC50 ([5]; Table 4, MRC5 normal lung fibroblast, 72 h incubation): 0.86 ± 0.06 µM | IC50 ([5]; Table 5, MRC5, 72-h incubation): 0.86 ± 0.06 µM
